A short description of this series: Inhibition of human ERG expressed in HEK293 cells assessed as reduction in S35-MK-0499 binding.

As a reminder, the IC50 is the midpoint of a concentration-inhibition curve.

`O=C(Nc1cccc(Cl)c1)N1CCOc2ccc(-c3ccncc3)cc2C1`: the IC50 turned out to be 8.34 µM.

The values are drawn from BindingDB's records for doi:10.1016/j.bmcl.2016.04.018 (Merck Research Laboratories, 2016).
